{"source": "patent US10426769B2", "about": "“Pharmaceutical composition for preventing and treating obesity or liver diseases, containg TLR7 agonist” (KNOTUS CO., LTD., priority 2015, dated 2019)", "key": {"[1]": {"test_system": "Mouse hepatocytes", "assay": "Fat accumulation in UFAs-treated mouse hepatocytes (oil-red-o staining, absorbance at 540 nm)", "type": "cell-based", "conditions": "imiquimod 10 μg/ml 1 hour before UFAs, 48 hours, vs group without treatment", "procedure": "(§1) The imiquimod purchased in Example 1 was tested in cells. Mouse hepatocytes were obtained by cellizing liver tissues isolated from normal C57BL6/J mice and TLR7 KO mice lacking the TLR7 gene and fat accumulation was induced by treatment with 10 mM of unsaturated fatty acid (UFAs) mixed with arachidonic acid (Sigma, USA) and oleic acid (Sigma, USA) 1:1.\n(§2) Cells were incubated at 37° C., 5% of CO2. DMEM (Dulbecco's modified Eagle's medium) containing 10% fetal bovine serum (FBS) and antibiotic (penicillin/streptomycin; Gibco, USA) was used as the cell culture medium. Every two days, the surface of the cultured cells was washed with phosphate buffered saline (PBS) and cells were isolated by treatment with 0.5% trypsin and then subcultured.\n(§3) The imiquimod was treated at the concentration of 10 μg/ml 1 hour before the start of the experiment. UFAs were then added and the fat accumulation was assessed after 48 hours.\nIn order to confirm that imiquimod inhibits the fat accumulation effect in hepatocytes, the cells were cultured for 48 hours after the reagent treatment according to the method of Example 2 above. The cells were stained with an oil-red-o reagent (Lifeline Cell Technology, Carlsbad, Calif., USA) and the accumulation of fat was visually evaluated (FIG. 1)."}, "[2]": {"test_system": "SREBP-1, FAS, aP2 and PPARγ gene expression", "assay": "Real time RT-PCR of fat-related genes in UFAs-treated mouse hepatocytes", "type": "cell-based", "conditions": "imiquimod 10 μg/ml", "procedure": "as §1, §2, §3\nTo determine the level of RNA expression at the gene level of fatty acid synthase (FAS), SREBP-1 (sterol regulatory element binding protein-1), PPARγ (peroxisome proliferator-activated receptor), and aP2 (fatty acid binding protein 4), real time RT-PCR (ABI Step One Plus Sequence System, Applied Biosystems, Singapore) was performed. The PPARγ and FAS are directly related to fat metabolism, and since the metabolism is regulated by the aP2 and SREBP-1 factor, it was determined whether imiquimod affects the factor.\nFrom the above results, it was confirmed that imiquimod inhibited lipid accumulation in hepatocytes through inhibition of SREBP-1, FAS, aP2 and PPARγ gene expression."}, "[3]": {"test_system": "LC3A/B and IGF-1", "assay": "LC3A/B and IGF-1 protein levels in UFAs-treated mouse hepatocytes", "type": "cell-based", "conditions": "proteins isolated from hepatocytes, imiquimod treatment", "procedure": "as §1, §2, §3\nIn FIG. 3, expression of autophagosome associated with congenital immunity and IGF-1 associated with fatty liver development was compared and evaluated. According to recently published international journals, It has been reported that as the expression of LC3A/B, an indicator of autophagosome increases, fatty liver improves, and as IGF-1 is inhibited, the fatty liver improves."}, "[4]": {"test_system": "C57BL6/J mice", "assay": "Fatty liver in mice fed high unsaturated fat diet, liver tissue and H & E staining", "type": "in vivo, mouse", "conditions": "45% UFAs diet 8 weeks, imiquimod 0.1 mg/kg injected twice a week", "procedure": "(§4) C57BL6/J mice (Daehan Biolink, Daejeon, Korea) that induced obesity with feed containing 45% UFAs for 8 weeks and a knockout mouse (TLR7 KO) from Dr. Akira (Osaka University, Suita, Japan) in which TLR7 is not inherently present, were used. For this purpose, imiquimod was injected twice a week at a concentration of 0.1 mg/kg, while fatty liver model was made by feeding only high unsaturated fat diet (UFAs diet with 45% of the calories, Daehan Biolink, Daejeon, Korea) for 8 weeks.\nAs a result of H & E staining of tissue sections, balloon, a sign of fat accumulation between cells and cells, was found in UFAs fed mice, which was confirmed to be improved by imiquimod injection."}, "[5]": {"test_system": "C57BL6/J mice", "assay": "Serological analysis of fatty liver mice (AST, ALT, triglyceride, total cholesterol)", "type": "in vivo, mouse", "conditions": "UFAs feed 8 weeks, imiquimod 0.1 mg/kg twice a week", "procedure": "as §4"}, "[6]": {"test_system": "C57BL6/J mice", "assay": "Triglyceride and cholesterol in liver tissue of fatty liver mice (ELISA)", "type": "in vivo, mouse", "conditions": "UFAs feed 8 weeks, imiquimod 0.1 mg/kg twice a week", "procedure": "as §4\nThe liver tissues separated from the mouse were finely crushed to prepare analytical samples, and the levels of triglyceride and cholesterol were measured using Enzyme Linked ImmunoSorbent Assay (ELISA) (FIG. 7)."}, "[7]": {"test_system": "SREBP-1, FAS, PPAR-γ, and aP2", "assay": "Real-time RT-PCR of fat-induced genes in liver tissue of fatty liver mice", "type": "in vivo, mouse", "conditions": "UFAs feed 8 weeks, imiquimod 0.1 mg/kg twice a week, liver mRNA", "procedure": "as §4\nFat-induced genes such as SREBP-1, FAS, PPAR-γ, and aP2 were increased in liver tissues from liver-derived mice fed UFAs compared to the control group."}, "[8]": {"test_system": "LC3A/B and IGF-1", "assay": "LC3A/B and IGF-1 protein expression in liver tissue of fatty liver mice", "type": "in vivo, mouse", "conditions": "fatty liver induced by UFAs, imiquimod 0.1 mg/kg twice a week, proteins from liver tissue", "procedure": "as §4\nAutophagosome associated with congenital immunity, and expression of IGF-1 associated with fatty liver development were compared and evaluated with proteins isolated from liver tissue. Similar to the protein isolated from the hepatocytes, and expression of TLR7 and its downstream transcript Myd88 was also confirmed, and as a result, we confirmed that imiquimod affects the expression of LC3A/B, an autophagosome marker, and IGF-1, a hepatocyte-producing protein, through TLR7 hyperactivity."}}, "data": [{"smiles": "CC(C)Cn1cnc2c(N)nc3ccccc3c21", "note": "[imiquimod]", "values": [{"measurement": "level of fat (absorbance at 540 nm)", "setting": "[1]", "value": "lower than that in the group without treatment"}, {"measurement": "expression of FAS", "setting": "[2]", "value": "inhibited the expression"}, {"measurement": "expression of PPARγ", "setting": "[2]", "value": "inhibited the expression"}, {"measurement": "expression of SREBP-1", "setting": "[2]", "value": "inhibited the expression"}, {"measurement": "expression of aP2", "setting": "[2]", "value": "inhibited the expression"}, {"measurement": "IGF-1 protein level", "setting": "[3]; IGF-1 increased by UFAs", "value": "decreases"}, {"measurement": "LC3A/B (indicator of autophagosome) protein level", "setting": "[3]; LC3A/B inhibited by UFAs", "value": "significant increases"}, {"measurement": "balloon (sign of fat accumulation), H & E staining of tissue sections", "setting": "[4]", "value": "improved"}, {"measurement": "development of fatty liver (evaluation of liver tissue)", "setting": "[4]", "value": "significant inhibition"}, {"measurement": "serum ALT level", "setting": "[5]", "value": "significantly decreased"}, {"measurement": "serum AST level", "setting": "[5]", "value": "significantly decreased"}, {"measurement": "serum cholesterol level", "setting": "[5]", "value": "significantly reduced"}, {"measurement": "serum triglyceride level", "setting": "[5]", "value": "significantly reduced"}, {"measurement": "cholesterol level in liver tissue", "setting": "[6]", "value": "significant reductions"}, {"measurement": "triglyceride level in liver tissue", "setting": "[6]", "value": "significant reductions"}, {"measurement": "FAS gene expression in liver tissue", "setting": "[7]", "value": "significantly reduced"}, {"measurement": "PPAR-γ gene expression in liver tissue", "setting": "[7]", "value": "significantly reduced"}, {"measurement": "SREBP-1 gene expression in liver tissue", "setting": "[7]", "value": "significantly reduced"}, {"measurement": "aP2 gene expression in liver tissue", "setting": "[7]", "value": "significantly reduced"}, {"measurement": "IGF-1 expression in liver tissue", "setting": "[8]", "value": "decreased"}, {"measurement": "LC3A/B expression in liver tissue", "setting": "[8]", "value": "significantly increased"}]}]}
